# Experimental data taken from patent US20110320392A1, “METHODS FOR PREDICTING CANCER RESPONSE TO EGFR INHIBITORS” (priority 2009, published 2011).
# Key:
# [1] = test system: Mia PaCa-2; conditions: pancreatic cancer cell line Mia PaCa-2, validation set (Tzeng et al., 2007); cited from earlier work
# [2] = test system: Panc-1; conditions: pancreatic cancer cell line Panc-1, validation set (Tzeng et al., 2007); cited from earlier work
# [3] = test system: H322; assay: erlotinib sensitivity of validation lung cancer cell line; format: cell-based, human; conditions: lung cancer cell line H322, validation set
# Procedure: (§1) The panel of NSCLC cell lines were separated into sensitive and resistant to erlotinib treatment using an apoptosis assay after 48 h as a measure (Balko et al., 2006). […] All cell lines were passaged as previously published and harvested after 2 days growth in serum-containing media (Balko et al., 2006). Lung cancer cell lines sensitive to erlotinib (H322 and HCC827) and resistant to erlotinib (H2122 and H820) and pancreatic cancer cell lines sensitive to erlotinib (Aspc-1 and Bxpc-3) and resistant to erlotinib (Mia PaCa-2 and Panc-1) were used for validation of the predictor, as previously described, again harvested after 2 days growth in serum-containing media (Tzeng et al., 2007).
# [4] = test system: H820; assay: as above; format: cell-based, human; conditions: lung cancer cell line H820, validation set
# Procedure: as §1
# [5] = test system: HCC827; assay: as above; format: cell-based, human; conditions: lung cancer cell line HCC827, validation set
# Procedure: as §1
# [6] = test system: H2122; assay: as above; format: cell-based, human; conditions: lung cancer cell line H2122, validation set
# Procedure: as §1
# [7] = test system: H460; assay: erlotinib sensitivity, apoptosis assay after 48 h; format: cell-based, human; conditions: NSCLC cell line H460, apoptosis assay after 48 h
# Procedure: (§2) The lung cancer cell lines were analyzed for in vitro sensitivity to the EGFR-tyrosine kinase inhibitor erlotinib. Cell lines were designated as “resistant” or sensitive” based upon an empirically determined threshold.
# as §1
# [8] = test system: H358; assay: erlotinib sensitivity, apoptosis assay after 48 h; format: cell-based, human; conditions: NSCLC cell line H358, apoptosis assay after 48 h
# Procedure: as §2, §1
# [9] = test system: H1650; assay: erlotinib sensitivity, apoptosis assay after 48 h; format: cell-based, human; conditions: NSCLC cell line H1650, apoptosis assay after 48 h
# Procedure: as §2, §1
# [10] = test system: PC-9; assay: erlotinib sensitivity, apoptosis assay after 48 h; format: cell-based, human; conditions: NSCLC cell line PC-9, apoptosis assay after 48 h
# Procedure: as §2, §1
# [11] = test system: UKY-29; assay: erlotinib sensitivity, apoptosis assay after 48 h; format: cell-based, human; conditions: NSCLC cell line UKY-29, apoptosis assay after 48 h
# Procedure: as §2, §1
# [12] = test system: H1975; assay: erlotinib sensitivity, apoptosis assay after 48 h; format: cell-based, human; conditions: NSCLC cell line H1975, apoptosis assay after 48 h
# Procedure: as §2, §1
# [13] = test system: A549; assay: erlotinib sensitivity, apoptosis assay after 48 h; format: cell-based, human; conditions: NSCLC cell line A549, apoptosis assay after 48 h
# Procedure: as §2, §1
# [14] = test system: H3255; assay: erlotinib sensitivity, apoptosis assay after 48 h; format: cell-based, human; conditions: NSCLC cell line H3255, apoptosis assay after 48 h
# Procedure: as §2, §1
# [15] = test system: Bxpc-3; conditions: pancreatic cancer cell line Bxpc-3, validation set (Tzeng et al., 2007); cited from earlier work
# [16] = test system: Aspc-1; conditions: pancreatic cancer cell line Aspc-1, validation set (Tzeng et al., 2007); cited from earlier work
smiles,measurement,setting,value
C#Cc1cccc(Nc2ncnc3cc(OCCOC)c(OCCOC)cc23)c1 [erlotinib],sensitivity to erlotinib,[1],resistant
same,sensitivity to erlotinib,[2],resistant
same,sensitivity to erlotinib,[3],sensitive
same,sensitivity to erlotinib,[4],resistant
same,sensitivity to erlotinib,[5],sensitive
same,sensitivity to erlotinib,[6],resistant
same,sensitivity to erlotinib treatment,[7],Resistant
same,sensitivity to erlotinib treatment,[8],sensitive
same,sensitivity to erlotinib treatment,[9],sensitive
same,sensitivity to erlotinib treatment,[10],sensitive
same,sensitivity to erlotinib treatment,[11],Resistant
same,sensitivity to erlotinib treatment,[12],Resistant
same,sensitivity to erlotinib treatment,[13],Resistant
same,sensitivity to erlotinib treatment,[14],sensitive
same,sensitivity to erlotinib,[15],sensitive
same,sensitivity to erlotinib,[16],sensitive
